Measured values from ChEMBL document CHEMBL1153039, “Allosteric modulators of the adenosine A1 receptor: synthesis and pharmacological evaluation of 4-substituted 2-amino-3-benzoylthiophenes” (J Med Chem, 2009).
Activity calls are given as the source filed them. No cut-off for these calls is given here.

What was measured:
[1] = target: T1, Adenosine receptor A1 (Homo sapiens) (UniProt P30542); assay: Binding affinity to allosteric site of unoccupied human adenosine A1 receptor transfected in CHO FlpIn cells assessed as potentiation of orthosteric agonist R-PIA-mediated ERK1/2 phosphorylation pretreated 30 mins before R-PIA challenge measured after 1.5 hrs by fluorescence assay; type: cell-based
T1 sequence (whole entry): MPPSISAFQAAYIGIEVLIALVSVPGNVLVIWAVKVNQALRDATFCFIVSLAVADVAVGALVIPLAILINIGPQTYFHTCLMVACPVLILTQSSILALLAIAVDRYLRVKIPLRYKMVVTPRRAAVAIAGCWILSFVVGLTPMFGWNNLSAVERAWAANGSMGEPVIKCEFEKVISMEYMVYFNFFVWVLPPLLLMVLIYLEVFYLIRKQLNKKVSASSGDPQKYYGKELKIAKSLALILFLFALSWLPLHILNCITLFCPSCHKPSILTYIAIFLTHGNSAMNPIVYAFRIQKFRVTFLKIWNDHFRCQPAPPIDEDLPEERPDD

[2] = target: T1, Adenosine receptor A1 (Homo sapiens); assay: Allosteric modulation of human adenosine A1 receptor transfected in CHO FlpIn cells assessed as orthosteric agonist R-PIA-mediated ERK1/2 phosphorylation at 0.1 to 3 uM pretreated 30 mins before R-PIA challenge measured after 1.5 hrs by fluorescence assay; type: functional, cell-based
[3] = target: T1, Adenosine receptor A1 (Homo sapiens); assay: Binding affinity to allosteric site of unoccupied human adenosine A1 receptor transfected in CHO FlpIn cells as potentiation of orthosteric agonist R-PIA-mediated [35S]GTPgammaS binding after 60 mins by liquid scintillation counting; type: functional, cell-based
[4] = target: T1, Adenosine receptor A1 (Homo sapiens); assay: Allosteric modulation of human adenosine A1 receptor transfected in CHO FlpIn cells assessed as orthosteric agonist R-PIA-mediated ERK1/2 phosphorylation at 3 uM pretreated 30 mins before R-PIA challenge measured after 1.5 hrs by fluorescence assay; type: functional, cell-based
[5] = target: T1, Adenosine receptor A1 (Homo sapiens); assay: Allosteric modulation of human adenosine A1 receptor transfected in CHO FlpIn cells assessed as orthosteric agonist R-PIA-mediated ERK1/2 phosphorylation at 10 uM pretreated 30 mins before R-PIA challenge measured after 1.5 hrs by fluorescence assay; type: functional, cell-based
[6] = target: T1, Adenosine receptor A1 (Homo sapiens); assay: […] at human adenosine A1 receptor transfected in CHO FlpIn cells assessed as potentiation of orthosteric agonist R-PIA-mediated [35S]GTPgammaS binding at 0.1 to 3 uM after 60 mins by liquid scintillation counting; type: functional, cell-based

| SMILES | pKb [1] | Activity [2] | pKb [3] | Activity [4] [%] | Activity [5] [%] | Activity [6] |
| --- | --- | --- | --- | --- | --- | --- |
| Nc1scc(-c2cccc(C(F)(F)F)c2)c1C(=O)c1ccccc1 | 6.37 | Active | 5.96 | 83 | 59 | Active |
| Nc1scc(-c2ccccc2)c1C(=O)c1ccccc1 | – | – | – | 49 | 48 | – |
| Nc1scc(-c2cccc(Br)c2)c1C(=O)c1ccc(Cl)cc1 | – | – | – | 62 | 69 | – |
| Nc1scc(-c2cc(C(F)(F)F)cc(C(F)(F)F)c2)c1C(=O)c1ccccc1 | 5.22 | Active | 5.82 | 83 | 93 | Active |
| COc1cccc(-c2csc(N)c2C(=O)c2ccc(Cl)cc2)c1 | – | – | – | 58 | 60 | – |
| COc1ccc(-c2csc(N)c2C(=O)c2ccccc2)cc1 | – | – | – | 52 | 52 | – |
| Nc1scc(-c2cccc(F)c2)c1C(=O)c1ccc(Cl)cc1 | – | – | – | 76 | 90 | – |
| Nc1scc(-c2cccc(Br)c2)c1C(=O)c1ccccc1 | – | – | – | 67 | 76 | – |
| Nc1scc(-c2ccc3ccccc3c2)c1C(=O)c1ccccc1 | – | – | – | 55 | 73 | – |
| Nc1scc(-c2ccc([N+](=O)[O-])cc2)c1C(=O)c1ccc(Cl)cc1 | – | – | – | 47 | 52 | – |
| Nc1scc(-c2ccc(F)cc2)c1C(=O)c1ccccc1 | – | – | – | 51 | 60 | – |
| Nc1scc(-c2cc(C(F)(F)F)cc(C(F)(F)F)c2)c1C(=O)c1ccc(Cl)cc1 | – | – | – | 69 | 74 | – |
| Nc1scc(-c2ccccc2F)c1C(=O)c1ccc(Cl)cc1 | – | – | – | 70 | 87 | – |
| COc1ccc(-c2csc(N)c2C(=O)c2ccc(Cl)cc2)cc1 | – | – | – | 51 | 55 | – |
| Nc1scc(-c2ccc(Br)cc2)c1C(=O)c1ccc(Cl)cc1 | – | – | – | 45 | 46 | – |
| Nc1scc(-c2cccc(C(F)(F)F)c2)c1C(=O)c1ccc(Cl)cc1 | – | – | – | 64 | 73 | – |

| SMILES | pKb [1] | Activity [2] | pKb [3] | Activity [4] [%] | Activity [5] [%] | Activity [6] |
| --- | --- | --- | --- | --- | --- | --- |
| Nc1scc(-c2cccc([N+](=O)[O-])c2)c1C(=O)c1ccccc1 | – | – | – | 47 | 50 | – |
| Nc1scc(-c2cccc([N+](=O)[O-])c2)c1C(=O)c1ccc(Cl)cc1 | – | – | – | 53 | 42 | – |
| Nc1scc(-c2cccc(Cl)c2)c1C(=O)c1ccc(Cl)cc1 | – | – | – | 58 | 75 | – |
| Nc1scc(-c2cccc(F)c2)c1C(=O)c1ccccc1 | – | – | – | 51 | 52 | – |
| Nc1scc(-c2ccc(F)cc2)c1C(=O)c1ccc(Cl)cc1 | – | – | – | 62 | 61 | – |
| Nc1scc(-c2ccc(Br)cc2)c1C(=O)c1ccccc1 | – | – | – | 46 | 49 | – |
| Nc1scc(-c2ccc([N+](=O)[O-])cc2)c1C(=O)c1ccccc1 | – | – | – | 50 | 47 | – |
| Nc1scc(-c2ccccc2)c1C(=O)c1ccc(Cl)cc1 | – | – | – | 51 | 64 | – |
| Nc1scc(-c2ccc(I)cc2)c1C(=O)c1ccc(Cl)cc1 | – | – | – | 54 | 61 | – |
| COc1cccc(-c2csc(N)c2C(=O)c2ccccc2)c1 | – | – | – | 41 | 34 | – |
| Nc1scc(-c2ccc3ccccc3c2)c1C(=O)c1ccc(Cl)cc1 | – | – | – | 54 | 67 | – |
| Nc1scc(-c2cccc(Cl)c2)c1C(=O)c1ccccc1 | – | – | – | 45 | 52 | – |
| Nc1scc(-c2ccc(I)cc2)c1C(=O)c1ccccc1 | – | – | – | 51 | 50 | – |
| Nc1scc(-c2ccc(Cl)cc2)c1C(=O)c1ccc(Cl)cc1 | – | – | – | 50 | 50 | – |
| Nc1scc(-c2ccc(Cl)cc2)c1C(=O)c1ccccc1 | – | – | – | 46 | 51 | – |
| Nc1scc(-c2ccccc2F)c1C(=O)c1ccccc1 | – | – | – | 55 | 68 | – |
